In general, IC50 refers to the concentration that inhibits the measured activity by half. Read a high IC50 as a need for much substance.

Active and inactive are the calls of the source. No cut-off for these calls is given here. Where only a bound is given, the exact number is not on record here.

The subject of one assay is MCF7. In words: Antiproliferative activity against human MCF7 cells assessed as cell viability at 10 uM after 48 hrs by WST-1 assay. Conditions: MCF7, 48 h, read-out: Activity. In kind it is functional. On the technique in general: Tetrazolium dyes change colour on reduction, which living cells bring about.
Assay [1] has as its system MDA-MB-231. In words: Antiproliferative activity against human MDA-MB-231 cells after 48 hrs by WST-1 assay. Type of assay: functional, cell-based. The settings on record: MDA-MB-231, 48 h.
The subject of a further assay is HCT-116. The assay can be described thus: Antiproliferative activity against human HCT116 cells after 48 hrs by WST-1 assay. In kind it is functional, cell-based. The settings on record: HCT-116, 48 h.
The next assay concerns NCI-H520. In words: Antiproliferative activity against human NCIH520 cells after 48 hrs after 48 hrs by WST-1 assay. In kind it is functional, cell-based.
Assay [2] relates to MDA-MB-231. The assay can be described thus: Antiproliferative activity against human MDA-MB-231 cells assessed as cell viability at 10 uM after 48 hrs by WST-1 assay. Type of assay: functional. The settings on record: MDA-MB-231, 48 h, read-out: Activity.
The subject of the next assay is Caco-2. The assay can be described thus: Antiproliferative activity against human Caco-2 cells. In kind it is functional, cell-based.
The subject of a further assay is SW-620. The assay can be described thus: Antiinvasive activity against human SW620 cells at 10 uM after 24 hrs. Type of assay: functional, cell-based.

For `CCCC(C)N/C=C1\N=C(c2ccc[nH]2)C=C1OC` (configuration not stated), the viability at 10 µM with MCF7 is less than 20%.

As for `CO[C@@H]1CC(c2ccc[nH]2)=N[C@]12O[C@@H](C)C[C@@H]1CCCCCCCc3ccc([nH]3)[C@H]12` [MARINEOSIN A], the IC50 with MDA-MB-231 [1] turned out to be 0.36 µM; in the assay with HCT-116, 0.14 µM.

Take `COC1=CC(c2ccc[nH]2)=N/C1=C\NC1CCCc2ccccc21` (configuration not stated): the IC50 came out at 4 µM in the assay on MDA-MB-231 [1] and 1.8 µM in the assay on HCT-116. In addition, the viability at 10 µM is less than 10% with MCF7 and 40% in the assay on MDA-MB-231 [2]. In the assay with NCI-H520, the result was inactive.

As for `COC1=CC(c2ccc[nH]2)=N/C1=C\NCC1CCCCC1`, the viability at 10 µM with MCF7 was less than 20%.

With `COC1=CC(c2ccc[nH]2)=N/C1=C/c1ccc(CCCCCCC/C=C/C(C)=O)[nH]1`, the IC50 with MDA-MB-231 [1] is 3.5 µM; in the assay on HCT-116, 3.6 µM.

With `COC1=CC(c2ccc[nH]2)=N/C1=C\NCCC(C)C` [TAMBJAMINE K], the IC50 is 15.3 µM in the assay on MDA-MB-231 [1], 0.0033 µM with Caco-2 and 13.7 µM with HCT-116.

As for `COC1=CC(c2ccc[nH]2)=N/C1=C\NC1Cc2ccccc2C1`, the viability at 10 µM with MCF7 is less than 20%. In addition, the result in the assay with SW-620 was inactive.

Turning to `COC1=CC(c2ccc[nH]2)=N/C1=C\NC1CCc2ccccc21` (configuration not stated), in the assay on MCF7, the viability at 10 µM was less than 20%.

Values taken from ChEMBL document CHEMBL1221244, “Total synthesis and biological evaluation of tambjamine K and a library of unnatural analogs” (Bioorg Med Chem Lett, 2010).
